Measured values from US10463694B2, “Functional segregated telodendrimers and nanocarriers and methods of making and using same” (The Research Foundation for the State University of New York, priority 2014, dated 2019).
Values joined by “and” are separate entries in the source; they are usually repeats but may differ in a detail not shown here. Identical values can stand only once.

Assays:
[1] = Tissue biodistribution of Pt by ICP-MS; assay type: in vivo, nude mice; details: 48 h post-injection
Method: Free CDDP and TM (CDDP/PTX=2:1) were injected into nude mice via tail vein at a single equivalent dose of CDDP 6 mg/kg. At 48 h post-injection, major organs (heart, liver, spleen, lung and kidney) and tumor tissues were harvested from the mice. The organs were weighed and dissolved in the concentrated nitric acid by heating up (70° C.) and evaporated to dryness, and then re-dissolved in 0.1N HCl for tissue biodistribution of Pt analysis by ICP-MS.

[2] = tested on: SKOV-3 ovarian cancer cells; test: MTS cytotoxicity and combination index, SKOV-3; assay type: cell-based, human; details: 72 h
Method: (§1) In vitro synergistic cytotoxicity: The cytotoxicity of blank micelles and drug-loaded micelle were assessed by measuring the cell viability using the standard MTS assay. SKOV-3 ovarian cancer cells and ES-2 ovarian cancer cells were seeded in 96-well plates at 4×10^3 cells per well in 100 μL of McCoy's 5A with L-glutamine containing 10% fetal bovine serum, supplemented with 50 U/mL penicillin and 50 U/mL streptomycin, and incubated at 37° C. in 5% CO2 atmosphere for 24 h. Different concentrations of the empty micelle solutions and drug-loaded micelles were added into the cell medium. After 72 h incubation, Cell Titer 96® Aqueous Cell Proliferation Reagent, which is composed of MTS and an electron coupling reagent PMS, was added to each well according to the manufacturer's instructions. The cell viability was determined by measuring the absorbance at 490 nm using a micro-plate reader. […]
(§2) The effective method to evaluate synergistic drug combinations in vitro is median-effect analysis, as originally proposed by Chou and Talalay (Chou T C. Theoretical basis, experimental design, and computerized simulation of synergism and antagonism in drug combination studies. Pharmacol Rev. 2006; 58:621-81. Chou T C, Talalay P. Quantitative analysis of dose-effect relationships: the combined effects of multiple drugs or enzyme inhibitors. Adv Enzyme Regul. 1984; 22:27-55.). […]

[3] = tested on: SKOV-3 ovarian cancer xenografts; test: In vivo anticancer efficacy
Method: Xenograft Mouse Models. Female athymic nude mice (Nu/Nu strain), 5-6 weeks age, were purchased from Harlan (Livermore, Calif.). All animals were kept under pathogen-free conditions according to AAALAC (Association for Assessment and Accreditation of Laboratory Animal Care) guidelines and were allowed to acclimatize for at least 4 days prior to any experiments. All animal experiments were performed in compliance with institutional guidelines and according to protocol approved by the Animal Use and Care Administrative Advisory Committee. SKOV-3 ovarian cancer cells (7×10^6) in a 100/IL of mixture of PBS and Matrigel (1:1 v/v) without fetal bovine serum (FBS) were injected subcutaneously into the flanks of nude mice to form nodules.
In vivo anticancer efficacy. Nude mice bearing human SKOV3 ovarian cancer tumor (approximately 150 mm^3) were randomly divided into 6 groups (n=5), including control (PBS only), free CDDP (4 mg/kg CDDP), TM(PTX) (3 mg/kg PTX), PEG(CDDP) (4 mg/kg CDDP), TM(CDDP) (6 mg/kg CDDP), and TM(CDDP/PTX=2:1) (6 mg/kg CDDP, 3 mg/kg PTX). Treatments were administered 3 times totally via tail vein on day 0, 4 and 8. Animal body weight and tumor volume were monitored every second day. Seven days after the last treatment, about 100 μL of blood was collected via tail bleeding for blood counts. The tumor sizes were measured with electronic calipers, and calculated using the following formula: V=(shortest diameter^2×longest diameter)/2.

[4] = Pharmacokinetics of platinum in plasma after i.v. injection; assay type: in vivo, mice
Method: Pharmacokinetics and biodistribution. The blood pharmacokinetics study were performed using female SPF BALB/c mice, which were purchased from Charles River Laboratories Inc. Nanocarriers were administered into mice via tail vein injection with free drug mixture of CDDP/PTX or co-loading TM (CDDP/PTX=2:1) solution at a single equivalent dose of CDDP/PTX 6/3 mg/kg via tail vein. At defined time points (5 min, 0.5 h, 1 h, 2 h, 4 h, 8 h, 24 h and 48 h), blood samples were collected into heparinized tubes and immediately centrifuged at 1,000 rpm for 15 min to obtain plasma. Plasma samples were dissolved on heat in nitric acid and the platinum contents were measured by ICP-MS. The percentage of injected dose in plasma was calculated considering plasma volume in mice to be 45.6 mL/kg. (King F G, Dedrick R L. Physiological pharmacokinetic parameters for cis-dichlorodiammineplatinum(II) (DDP) in the mouse. J Pharmacokinet Biopharm. 1992; 20:95-9.)

[5] = cancer treatment in mouse models; cited from earlier work
[6] = tested on: ES-2 ovarian cancer cells; test: MTS cytotoxicity and combination index, ES2; assay type: cell-based; details: 72 h
Method: as §1, §2

Hela cells = test: MTS cytotoxicity and combination index, Hela; assay type: cell-based; details: 72 h
[7] = tested on: wide variety of cancer cells in culture; details: cited from earlier work
[8] = in vivo; cited from earlier work
[9] = DOX release, dialysis against PBS; assay type: physicochemical; details: dialysis against PBS at 37° C.
Method: DOX Release. 1 mL of DOX-PEG^5KCHA4-L-Rh4 (1.5:15.0) solution was distributed into three dialysis tube and dialyzed against 50 ml PBS at 37° C., respectively, in comparison with free DOX. The samples were placed in conical tubes filled with PBS, which was refreshed at the time of UV-Vis measuring at 550 nm (FIG. 13). The free DOX was completely released by 10 hours but the loaded DOX remained encapsulated at around 50% by the time the study was finished at 96 hours. This indicates the high DOX binding affinity within PEG^5KCHA4-L-Rh4 micelles and a sustained DOX release would reduce in vivo toxicity of payload drug and increase tumor targeting effects via the prolonged circulating to take EPR effects.

SKOV-3 tumor xenograft = test: NIRF optical animal imaging, in vivo and ex vivo; set-up: species or system nude mice; details: in vivo whole body imaging
Method: DiD (a hydrophobic near-infrared (NIR) cyanine dye) was encapsulated in each nanocarrier (together with PTX and CDDP) at a ratio of 2:1:0.1 (CDDP/PTX/DiD by weight) using the same method as described above. The particle size was measured by DLS analysis. 100 μL of TM(DiD-PTX-CDDP) solution was filtered with a 0.22 μm filter to sterilize solution before injection. At the same time, same amount of DiD in DMSO solution was diluted with PBS right before I.V. injection. The fluorescent DiD co-loaded TM with equivalent dose of 6 mg/kg CDDP were injected into nude mice bearing SKOV-3 tumor xenograft via tail vein. Mice were anesthetized via isoflurane and optically imaged at different time points (1 h, 2 h, 4 h, 8 h, 24 h, 48 h and 72 h) using an IVIS 200 (PerkinElmer) with the (excitation/emission 625/700 nm). At the end of the experiments, the animals were sacrificed and all the major organs as well as tumors were excised for ex vivo imaging to determine the in vivo biodistribution of nanoparticles. The associated fluorescence intensities were determined by Living Image software (Caliper Life Sciences) using operator-defined regions of interest (ROI) measurements.

[10] = platinum in plasma, i.v., two compartment model
[11] = first figure of co-loaded cells

Question: With `[NH2][Pt]([NH2])([Cl])[Cl]` [CDDP, Cisplatin] as the molecule, how does the “kidney/tumor ratio of Pt concentrations” value [1] read?
Answer: Its value is 4.

Question: And the “liver/tumor ratio of Pt concentrations” value [1]?
Answer: The value was 2.

Question: What about the “SKOV-3 IC50, CDDP concentration” value ([2]; first figure of co-loaded cells (CDDP/PTX)) of the same molecule?
Answer: Its value is 1.354 µg/mL.

Question: What about the medium survival time ([3]; 4 mg/kg CDDP) of the same molecule?
Answer: The medium survival time was 15 days.

Question: What about the body weight loss ([3]; 4 mg/kg CDDP on days 0, 4, 8, day 12) of the same molecule?
Answer: The body weight loss was “exceeded 20%”.

Question: What about the mortality ([3]; 4 mg/kg CDDP, deaths on day 12, 13, 15, 16 and 17) of the same molecule?
Answer: The mortality was “died”.

Question: And the “WBC count versus PBS control” value ([3]; day 7 after the last injection, 4 mg/kg CDDP)?
Answer: The value was “significantly decreased”.

Question: And the “Pt of the injected dose in plasma” value ([4]; 30 min after injection)?
Answer: The value was 5%.

Question: What about the “Pt of the injected dose in plasma” value ([4]; 24 h post injection) of the same molecule?
Answer: The value was “less than 1%”.

Question: And the Cmax ([4]; platinum in plasma, 5 min post iv injection)?
Answer: The Cmax was 27600 ng/mL and 27580 ng/mL.

Question: What about the AUC ([4]; platinum in plasma, i.v.) of the same molecule?
Answer: The AUC was 30800 ng·h/mL.

Question: What about the CL ([4]; platinum in plasma, i.v.) of the same molecule?
Answer: Its CL is 2.1645 mL/min/kg.

Question: What about the CL2 ([4]; platinum in plasma, i.v.) of the same molecule?
Answer: Its CL2 is 9.3217 mL/min/kg.

Question: What about the Vss ([4]; platinum in plasma, i.v.) of the same molecule?
Answer: Its Vss is 0.6681 L/kg.

Question: And the t1/2α [4, 10]?
Answer: The t1/2α was 2.64 min.

Question: And the t1/2β [4, 10]?
Answer: Its t1/2β is 258 min.

Question: And the “maximum tolerated dose (MTD)” value [5]?
Answer: The value was ≤ 4 mg/kg.

Question: And the “ES2 IC50, CDDP concentration” value [6, 11]?
Answer: Its value is 0.92 µg/mL.

Question: And the “Hela IC50, CDDP concentration” value (Hela cells; [11])?
Answer: Its value is 2.427 µg/mL.

Question: Which results are given for `CC(=O)O[C@H]1C(=O)[C@@]2(C)[C@H]([C@H](OC(=O)c3ccccc3)[C@]3(O)C[C@H](OC(=O)[C@H](O)[C@@H](NC(=O)c4ccccc4)c4ccccc4)C(C)=C1C3(C)C)[C@]1(OC(C)=O)CO[C@@H]1C[C@@H]2O` [PTX, paclitaxel]?
Answer: IC50 ([2]; Homo sapiens, SK-OV-3, second figure of co-loaded cells (CDDP/PTX), read-out: SKOV-3 IC50, PTX concentration): 0.032 µg/mL; potency relative to CDDP (IC50s: low nM vs low μM) [7]: ~1000 times; t1/2 in human [8]: 20.4 min; IC50 ([6]; second figure of co-loaded cells, read-out: ES2 IC50, PTX concentration): 0.055 µg/mL; IC50 (Hela cells; Homo sapiens, HeLa, second figure of co-loaded cells, read-out: Hela IC50, PTX concentration): 0.02 µg/mL

Question: For `COc1cccc2c1C(=O)c1c(O)c3c(c(O)c1C2=O)C[C@@](O)(C(=O)CO)C[C@@H]3O[C@H]1C[C@H](N)[C@H](O)[C@H](C)O1` [free DOX, Doxorubicin], which “time to complete DOX release” value [9] is on record?
Answer: Its value is ≤ 10 h.

Question: With `CCCCCCCCCCCCCCCCCCN1C(=CC=CC=CC2=[N+](CCCCCCCCCCCCCCCCCC)c3ccccc3C2(C)C)C(C)(C)c2ccccc21.[O-][Cl+3]([O-])([O-])[O-]` [free DiD, 1,1′-dioctadecyl-3,3,3,′,3′-tetramethylindodicarbocyanine perchlorate] as the molecule, how does the tumor fluorescence (SKOV-3 tumor xenograft) read?
Answer: Its tumor fluorescence is “very weak tumor fluorescence”.
